Laboratory results reported in patent publication US9187421B2, “Etomidate analogues that do not inhibit adrenocortical steroid synthesis” (THE GENERAL HOSPITAL CORPORATION, priority 2009, dated 2015).
“Also recorded” adds a separate entry of the source.

Assays:
rats [1] = test: Rat hemodynamics (mean blood pressure); settings: IV; for effect on mean blood pressure relative to DMSO vehicle (FIG. 7B): 14 mg/kg carboetomidate, 2 mg/kg etomidate (2×ED50); for effect on mean blood pressure, comparison of three anesthetics (FIG. 7A): twice ED50 for LORR (8 mg/kg propofol, 2 mg/kg etomidate, 14 mg/kg carboetomidate)
Description: Femoral arterial catheters, tunneled between the scapulas, were preimplanted by the vendor (Charles River Laboratories). Animals were fully recovered from the placement procedure on arrival.
On the day of study, after weighing and lateral tail vein IV catheter placement, rats were restrained in the acrylic tube with a tail exit port and allowed to acclimate for approximately 10 to 20 min before data collection. […] All data were acquired and analyzed using LabView Software (version 8.5 for Macintosh OS X; National Instruments).
Carboetomidate (40 mg/ml) dissolved in DMSO, etomidate (5.7 mg/ml) dissolved in DMSO, or DMSO vehicle alone as a control was administered through the tail vein catheter followed by approximately 1-ml normal saline flush.
The average mean blood pressure was calculated at each 30-second epoch during this study period.

rats [2] = test: Loss of righting reflex in rats after IV bolus; assay type: in vivo, Sprague-Dawley rats; settings: for anesthetic toxicity in rats: highest doses; for slope of duration of anesthesia versus logarithm of anesthetic dose: time to spontaneous righting; for onset time for LORR / onset time for LORR, range: IV, equihypnotic doses 4×ED50 (28 mg/kg carboetomidate, 4 mg/kg etomidate); for time to LORR after IV bolus (in words): doses sufficient to produce LORR
Description: Rats: Rats were briefly restrained in a 3-inch diameter, 9-inch long acrylic chamber with a tail exit port. The desired dose of carboetomidate in dimethyl sulfoxide (DMSO; typically at 40 mg/ml) was injected through a lateral tail vein catheter followed by an approximately 1-ml normal saline flush. After injection, rats were removed from the restraint device and turned supine. […] A stopwatch was used to measure the duration of LORR, which was defined as the time from carboetomidate injection until the animal spontaneously righted itself. The ED50 for LORR on bolus administration was determined from the dose dependence of LORR using the method of Waud.26 Onset time for LORR was determined separately by injecting rats with 28 mg/kg of carboetomidate (40 mg/ml in DMSO) or 4 mg/kg of etomidate (5.7 mg/ml in DMSO) through a lateral tail vein catheter followed by an approximately 1-ml normal saline flush. After injection, rats were immediately removed from the restraint device and repeatedly turned supine until they no longer spontaneously righted. The onset time was defined as the time from injection until LORR occurred.
Etomidate or carboetomidate was administered to Sprague Dawley rats as an IV bolus into their tail veins. […] LORR was defined as the time from drug injection until the animal spontaneously righted itself. The ED50 for LORR upon bolus anesthetic administration was determined from the anesthetic dose-dependence of LORR.

humans = settings: literature (Arden et al. 1986); cited from earlier work
Xenopus laevis tadpoles [3] = settings: literature (Husain et al. 2003); cited from earlier work
[4] = target: T1, human α1β2γ2L GABAA receptors (Homo sapiens, UniProt P14867+P47870); settings: 4 μM etomidate, inventors' previous study; cited from earlier work
T1 construct: expressed in transfected cells; host or cells: Xenopus laevis oocytes injected with mRNA (subunit ratio 1:1:2)
T1 sequence (P47870 25-512 limits assumed): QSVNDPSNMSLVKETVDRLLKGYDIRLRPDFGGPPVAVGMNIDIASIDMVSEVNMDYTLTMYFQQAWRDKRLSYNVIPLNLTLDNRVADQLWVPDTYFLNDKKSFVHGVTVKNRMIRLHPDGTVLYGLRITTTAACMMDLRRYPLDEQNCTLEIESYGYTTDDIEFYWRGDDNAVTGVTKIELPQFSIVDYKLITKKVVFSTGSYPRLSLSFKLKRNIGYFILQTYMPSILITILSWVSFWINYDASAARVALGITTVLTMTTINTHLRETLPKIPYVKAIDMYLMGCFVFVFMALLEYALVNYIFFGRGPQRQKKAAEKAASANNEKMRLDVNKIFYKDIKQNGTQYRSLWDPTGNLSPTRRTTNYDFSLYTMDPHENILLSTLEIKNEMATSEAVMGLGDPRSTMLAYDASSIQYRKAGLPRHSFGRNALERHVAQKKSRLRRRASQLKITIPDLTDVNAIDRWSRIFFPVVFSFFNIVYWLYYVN
T1 sequence (P14867 28-456): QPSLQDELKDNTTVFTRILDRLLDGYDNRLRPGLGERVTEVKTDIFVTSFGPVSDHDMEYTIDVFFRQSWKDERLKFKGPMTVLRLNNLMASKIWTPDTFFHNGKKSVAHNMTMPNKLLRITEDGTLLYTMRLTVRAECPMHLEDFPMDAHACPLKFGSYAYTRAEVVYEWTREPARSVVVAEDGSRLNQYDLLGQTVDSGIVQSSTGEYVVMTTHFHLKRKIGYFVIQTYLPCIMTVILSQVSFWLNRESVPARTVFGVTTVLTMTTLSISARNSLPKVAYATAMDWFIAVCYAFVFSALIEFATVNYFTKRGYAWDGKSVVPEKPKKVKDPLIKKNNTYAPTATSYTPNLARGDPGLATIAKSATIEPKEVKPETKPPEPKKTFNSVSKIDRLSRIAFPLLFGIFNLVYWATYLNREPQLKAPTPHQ
T1 sequence (P18507 40-475 partner): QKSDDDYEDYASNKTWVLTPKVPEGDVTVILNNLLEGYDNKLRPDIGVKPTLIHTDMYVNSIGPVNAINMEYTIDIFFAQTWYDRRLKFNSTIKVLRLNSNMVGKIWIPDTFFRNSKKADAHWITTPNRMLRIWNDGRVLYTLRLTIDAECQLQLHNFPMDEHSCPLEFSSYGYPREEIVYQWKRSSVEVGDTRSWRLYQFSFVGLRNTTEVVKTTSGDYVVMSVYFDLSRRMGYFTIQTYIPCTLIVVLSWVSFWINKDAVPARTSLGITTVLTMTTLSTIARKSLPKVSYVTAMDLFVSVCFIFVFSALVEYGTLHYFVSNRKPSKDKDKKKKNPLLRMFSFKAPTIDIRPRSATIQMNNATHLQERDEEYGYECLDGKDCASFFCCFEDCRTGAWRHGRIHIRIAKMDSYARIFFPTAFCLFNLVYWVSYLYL

rats [5] = test: Rat adrenocortical suppression (ACTH1-24-stimulated serum corticosterone); settings: IV bolus 2×ED50 (14 mg/kg carboetomidate, 2 mg/kg etomidate), 15 min after ACTH1-24
Description: Immediately after weighing and IV catheter placement, dexamethasone (0.2 mg/kg IV; American Regent, Shirley, N.Y.) was administered to each rat to inhibit endogenous adrenocorticotropic hormone (ACTH) release, to suppress baseline corticosterone production, and to inhibit the variable stress response to restraint and handling. […] The concentrations of carboetomidate and etomidate in DMSO were 40 and 5.7 mg/ml, respectively. Immediately after hypnotic or vehicle administration, ACTH1-24 (25 μg/kg; Sigma-Aldrich Chemical Co, St. Louis, Mo.) was given intravenously to stimulate corticosterone production. Fifteen minutes later, a second blood sample was drawn to measure the ACTH1-24-stimulated serum corticosterone concentration. ACTH1-24 was dissolved in 1 mg/ml of deoxygenated water as stock, aliquoted, and frozen (−20° C.); a fresh aliquot was thawed just before each use. Rats in all three groups (carboetomidate, etomidate, and vehicle) received the same volume of DMSO (350 μl/kg).
Blood samples were allowed to clot at room temperature (10-60 min) before centrifugation at 3,500 g for 5 min. Serum was carefully expressed from any resulting superficial fibrin clot using a clean pipette tip before a second centrifugation at 3,500 g for 5 min. After the second centrifugation, the resultant clot-free serum layer was transferred to a fresh vial for a final, high-speed centrifugation (16,000 g, for 5 min) to pellet any contaminating red blood cells or particulates. The serum was transferred to a clean vial and promptly frozen (−20° C.) pending corticosterone measurement. After thawing and heat inactivation of corticosterone-binding globulins (65° C. for 20 min), serum baseline and ACTH1-24-stimulated corticosterone concentrations were quantified using an enzyme-linked immunosorbent assay (Diagnostic Systems Laboratories, Webster, Tex.) and a 96-well plate reader (Molecular Devices, Sunnyvale, Calif.).
Male Sprague Dawley rats were pre-treated with dexamethasone to inhibit endogenous ACTH production and minimize baseline serum corticosterone concentrations. […]

[6] = tested on: critically ill trauma patients; settings: critically ill trauma patients sedated with etomidate vs. benzodiazepines (28%); Watt and Ledingham 1984; cited from earlier work
[7] = target: T2, etomidate-insensitive mutant α1β2M286Wγ2L GABAA receptors (Homo sapiens, UniProt P14867+P47870, M310W); test: GABAA receptor electrophysiology, etomidate-insensitive mutant receptors in Xenopus oocytes; assay type: cell-based; settings: 10 μM compound
T2 construct: expressed in transfected cells; host or cells: Xenopus laevis oocytes injected with mRNA (subunit ratio 1:1:2)
T2 sequence (P47870 26-512 M310W): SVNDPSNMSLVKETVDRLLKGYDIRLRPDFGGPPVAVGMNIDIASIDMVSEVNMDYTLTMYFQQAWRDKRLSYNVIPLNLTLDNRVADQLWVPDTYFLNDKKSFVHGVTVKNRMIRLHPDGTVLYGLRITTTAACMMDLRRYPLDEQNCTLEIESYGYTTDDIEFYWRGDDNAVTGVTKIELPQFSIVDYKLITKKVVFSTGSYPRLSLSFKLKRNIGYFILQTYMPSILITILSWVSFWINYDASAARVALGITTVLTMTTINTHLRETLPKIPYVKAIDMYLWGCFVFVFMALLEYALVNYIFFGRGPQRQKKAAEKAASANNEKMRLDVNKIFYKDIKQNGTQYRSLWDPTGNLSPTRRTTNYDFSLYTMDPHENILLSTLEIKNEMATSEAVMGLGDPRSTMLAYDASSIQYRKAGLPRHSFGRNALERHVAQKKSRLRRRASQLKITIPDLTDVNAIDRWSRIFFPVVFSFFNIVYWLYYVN
T2 sequence (P14867 28-456): as the sequence (P14867 28-456) above
T2 sequence (P18507 40-475 partner): as the sequence (P18507 40-475 partner) above
Description: Stage 4 and 5 oocytes were injected with messenger RNA encoding the α1, β2 (or β2M286W), and γ21 subunits of the human GABAA receptor (˜40 ng of messenger RNA total at a subunit ratio of 1:1:2). This messenger RNA was transcribed from complementary DNA encoding for GABAA receptor α1, β2 (or β2M286W), and γ21 subunits using the mMESSAGE mMACHINE High Yield Capped RNA Transcription Kit (Ambion, Austin, Tex.). Injected oocytes were incubated in ND-96 buffer solution (96 mM NaCl, 2 mM KCl, 1 mM CaCl2, 0.8 mM MgCl2, 10 mM HEPES, pH 7.5) containing 50 U/ml of penicillin and 50 μg/ml of streptomycin at 17° C. for at least 18 h before electrophysiologic experiments.
For each oocyte, the concentration of GABA that produces 5-10% of the maximal current response (EC5-10 GABA) was determined by measuring the peak current responses evoked by a range of GABA concentrations (in ND-96 buffer) and comparing them with the maximal peak current response evoked by 1 mM GABA. […]

Xenopus laevis tadpoles [8] = test: Tadpole loss of righting reflex (LORR) assay; assay type: in vivo
Description: Tadpoles: Groups of five early prelimb-bud stage Xenopus laevis tadpoles were placed in 100 ml of oxygenated water buffered with 2.5 mM Tris HCl buffer (pH. 7.4) and containing a concentration of carboetomidate ranging from 1 to 40[…]. Tadpoles were tipped manually every 5 min with a flame-polished pipette until the response stabilized. […] At the end of each study, tadpoles were returned to fresh water to ensure reversibility of hypnotic action. The EC50 for LORR was determined from the carboetomidate concentration dependence of LORR using the method of Waud D R, J Pharmacol Exp Ther (1972) 183: 577-607, content of which is herein incorporated by reference.
Tadpoles: The tadpole loss of righting reflex assay was used to test for anesthetic activity. Groups of 5 early prelimb-bud stage Xenopus laevis tadpoles were placed in 100 ml of oxygenated water buffered with 2.5 mM Tris HCl buffer (pH=7) and containing a concentration of carboetomidate ranging from 1-40 μM. See Scheme 1, above, for structure of Carboetomidate. Tadpoles were tipped manually every 5 min with a flame polished pipette. […] At all concentrations, this loss of righting reflex response stabilized within 30 min of carboetomidate exposure. At the end of each study, tadpoles were returned to fresh water to ensure reversibility of hypnotic action.

[9] = target: T1, human α1β2γ2L GABAA receptors; test: GABAA receptor electrophysiology, wild-type receptors in Xenopus oocytes (two-electrode voltage clamp); assay type: cell-based; settings: 10 μM compound
Description: Adult female Xenopus laevis frogs were anesthetized with 0.2% tricaine (ethyl-m-aminobenzoate) and hypothermia. Ovary lobes were then excised through a small laparotomy incision and placed in OR-2 solution (82 mM NaCl, 2 mM KCl, 2 mM MgCl2, 5 mM HEPES, pH 7.5) containing collagenase 1A (1 mg/ml) for 3 h to separate oocytes from connective tissue.
Stage 4 and 5 oocytes were injected with messenger RNA encoding the α1, β2 (or β2M286W), and […] subunits of the human GABAA receptor (˜40 ng of messenger RNA total at a subunit ratio of 1:1:2). […]
All electrophysiologic recordings were performed using the whole cell two-electrode voltage-clamp technique. […] Current responses were recorded using Clampex 9.2 software (Axon Instruments) and processed using a Bessel (8-pole) low-pass filter with a cutoff at 50 Hz using Clampfit 9.2 software (Axon Instruments).
For each oocyte, the concentration of GABA that produces 5-10% of the maximal current response (EC5-10 GABA) was determined by measuring the peak current responses evoked by a range of GABA concentrations (in ND-96 buffer) and comparing them with the maximal peak current response evoked by 1 mM GABA. The effect of carboetomidate on EC5-10 GABA-evoked currents was then assessed by first perfusing the oocyte with EC5-10 GABA for 90 s and then measuring the control peak evoked current. […]

## CCOC(=O)c1cncn1C(C)c1ccccc1 (stereo not shown) [etomidate, ethyl 3-(1-phenylethyl)imidazole-4-carboxylate]
Rats [1]
  effect on mean blood pressure relative to DMSO vehicle (FIG. 7B): significantly reduced mean blood pressure relative to vehicle
  effect on mean blood pressure, comparison of three anesthetics (FIG. 7A): magnitude of this decrease was less
Rats [2]; Rattus norvegicus, rats, IV bolus, read-out: ED50 for LORR following bolus administration
  ED50: 1 ± 0.03 mg/kg
Rats [2]; IV bolus
  anesthetic toxicity in rats: no obvious anesthetic toxicity
Rats [2]; rats, IV bolus
  slope of duration of anesthesia versus logarithm of anesthetic dose: 27±7
Rats [2]; rats
  onset time for LORR: 4.5 ± 0.6 s
  onset time for LORR, range: 4 to 5 s
  time to LORR after IV bolus (in words): within several seconds
humans
  concentration inducing loss of responsiveness in humans: ~2 µM
Xenopus laevis tadpoles [3]
  concentration inducing loss of righting reflex in tadpoles: ~2 µM
[4]
  magnitude of potentiation of GABAA receptor currents: 660±240%
Rats [5]
  ACTH1-24-stimulated serum corticosterone concentration versus vehicle (in words): significantly reduced
[6]
  mortality: 77%

## CC(C)c1cccc(C(C)C)c1O [propofol, reference compound]
Rats [1]
  effect on mean blood pressure, comparison of three anesthetics (FIG. 7A): mean blood pressure decreased

## (R)-1-(1-phenylethyl)-1H-pyrrole-2-carboxylate [carboetomidate]
[7]; 0.3 μM GABA, mutant M286W
  effect on amplitude of GABA-evoked currents: little effect
[7]; EC5-10 GABA
  enhancement of currents mediated by etomidate-insensitive mutant receptors: −9±16%
Rats [1]
  effect on mean blood pressure relative to DMSO vehicle (FIG. 7B): not significantly greater than that of DMSO vehicle alone
  effect on mean blood pressure, comparison of three anesthetics (FIG. 7A): magnitude of this decrease was less; also recorded: depresses blood pressure significantly less than propofol or etomidate
Rats [2]; IV bolus
  anesthetic toxicity in rats: no obvious anesthetic toxicity
Rats [2]; rats, IV bolus
  ED50 for LORR following bolus administration: 7 ± 2 mg/kg
  slope of duration of anesthesia versus logarithm of anesthetic dose: 16±4
Rats [2]; rats
  onset time for LORR: 33 ± 22 s
  onset time for LORR, range: 10 to 63 s
  time to LORR after IV bolus (in words): within several seconds
Xenopus laevis tadpoles [8]; 1-40 μM, recovery in fresh water
  toxicity in tadpoles: No evidence of toxicity was observed
Xenopus laevis tadpoles [8]; LORR, Xenopus laevis tadpoles, quantal method of Waud, read-out: anesthetic EC50 (concentration at which 50% of tadpoles were anesthetized)
  EC50: 5.4 ± 0.5 µM
Xenopus laevis tadpoles [8]; all concentrations (1-40 μM)
  time for LORR response to stabilize: ≤ 30 min
Xenopus laevis tadpoles [8]; highest concentrations, 10-40 μM
  fraction of tadpoles anesthetized: all tadpoles were anesthetized
[9]; 3 μM GABA, wild-type
  enhancement of amplitudes of GABA-evoked currents: 4 fold
[9]; EC5-10 GABA
  enhancement (potentiation) of currents mediated by wild-type receptors: 390±80%
Rats [5]
  ACTH1-24-stimulated serum corticosterone concentration versus vehicle (in words): not different from those that had received only vehicle; also recorded: relatively unchanged versus vehicle
